# Experimental data published in US6506785B2, “Treating or preventing the early stages of degeneration of articular cartilage or subchondral bone in mammals using carprofen and derivatives” (Pfizer, Inc., priority 1998, dated 2003).
# Tests used:
# [1] = Clearance rates of carprofen-genus enantiomers; settings: in vivo
# Description: The above-recited ranges of dosage amounts, which are also recited elsewhere herein, are for racemic mixtures of compounds of Formula (I) having a chiral carbon, or for single compounds of Formula (I) where no chiral carbon atom is present. As will be appreciated by the person of ordinary skill in this art, i.e., a practicing veterinarian or a person with an advanced degree and experience in animal health issues, where other than a racemic mixture of compounds of Formula (I) is involved, the chondroprotective therapeutically effective amount will vary. For example, if 85% of the mixture is (S)-enantiomer, that will ordinarily tend to reduce the necessary dosage. […] However, the degree of difference between the activities of the two enantiomers must also take into account other differences, especially differences in pharmacokinetics between the two enantiomers, in determining the proper dosage. […] This, in turn, will have a calculable impact on the amount of active compound to be administered. Ordinarily, such determinations will be made on a case-by-case basis by the artisan, but these are well within the ordinary skill of the art, as is instituting the methods whereby data necessary for the supporting calculations may be obtained.
# [2] = in vivo, po
# Experimental: Accordingly, a useful controlled release dosage form of carprofen in accordance with the present invention is one which maintains a carprofen plasma level greater than 2 μg/mL for most of the day after a single oral dose at 2 mg/lb.
# Immediate release carprofen dosage forms containing doses of 1.8, 1.6, and 1.4 mg/lb maintain a plasma carprofen concentration above 10 μg/mL for 9.5 hrs, 8.5 hrs, and 7.5 hrs, respectively. Preferred 1.8 mg/lb oral controlled release carprofen dosage forms maintain a plasma carprofen concentration above 10 μg/mL for greater than 9.5 hrs. Likewise, the threshold durations for 1.6 mg/lb and 1.4 mg/lb doses are 8.5 hrs and 7.5 hrs, respectively. The performance characteristics for preferred oral controlled release carprofen dosage forms at doses higher than 2 mg/lb or less than 1.4 mg/lb can be similarly calculated, assuming linear pharmacokinetics. More preferred oral controlled release carprofen dosage forms are those which maintain a plasma carprofen concentration greater than 10 μg/mL for a period of time greater than or equal to that observed when an immediate release carprofen dosage form is dosed at any higher dose. […]
# [3] = test system: cultured osteoarthritic mammal chondrocytes / cartilage explants; settings: cited from earlier work
# articular cartilage = settings: cited from earlier work
# [4] = test system: atrophied mammal articular cartilage; settings: in vivo; cited from earlier work
# [5] = test system: cartilage homeostasis in osteoarthritic joints; settings: compared with control joints; cited from earlier work
compound,measurement,setting,value
"C[C@H](C(=O)O)c1ccc2c(c1)[nH]c1ccc(Cl)cc12 (single isomer, unassigned) [(+)(S) enantiomer]","clearance rates, (+)(S) versus (−)(R) enantiomer",[1],significant difference in clearance rates
"C[C@@H](C(=O)O)c1ccc2c(c1)[nH]c1ccc(Cl)cc12 (single isomer, unassigned) [(−)(R) enantiomer]","clearance rates, (+)(S) versus (−)(R) enantiomer",[1],significant difference in clearance rates
"CC(C(=O)O)c1ccc2c(c1)[nH]c1ccc(Cl)cc12 (stereo not drawn) [carprofen, 6-chloro-α-methyl-9H-carbazole-2-acetic acid]",time plasma carprofen levels are maintained above approximately 10 μg/mL,[2],10.5 h
same,cartilage GAG synthesis,[3]; carprofen concentrations of 1 and 10,selectively stimulating new cartilage GAG synthesis
same,cartilage proteoglycan breakdown,[3]; carprofen concentrations of 1 and 10 μL/ml,without any direct effect on cartilage proteoglycan breakdown
Pentosan polysulfate [PPS],articular cartilage damage,articular cartilage; gross and histologic evaluation,significantly decrease articular cartilage damage
same,articular cartilage proteoglycan content,articular cartilage; in vivo,maintenance of normal articular cartilage proteoglycan content
hyaluronic acid [HA],effect on atrophied articular cartilage,[4],chondrostabilizing effect
polysulfated glycosaminoglycan [PSGAG],microscopic structural alteration,[5],decreased microscopic structural alteration
same,proteinase activity,[5],decreased proteinase activity
same,proteoglycan in cartilage,[5],retention of proteoglycan in cartilage
